Assay results published in ChEMBL document CHEMBL4342507, “Targeting YAP Degradation by a Novel 1,2,4-Oxadiazole Derivative via Restoration of the Function of the Hippo Pathway” (ACS Med Chem Lett, 2020).
The source made the active and inactive calls. The calls are words filed in the database; no cut-off is given here.

Columns and labels:
[1] = target: Epidermal growth factor receptor (Homo sapiens) (UniProt P00533); assay: Induction of EGFR degradation in human MDA-MB-231 cells assessed as suppression of EGFR expression at 0.05 to 0.6 uM by Western blot analysis; assay type: cell-based
Sequence of Epidermal growth factor receptor (Homo sapiens) (P00533 whole entry): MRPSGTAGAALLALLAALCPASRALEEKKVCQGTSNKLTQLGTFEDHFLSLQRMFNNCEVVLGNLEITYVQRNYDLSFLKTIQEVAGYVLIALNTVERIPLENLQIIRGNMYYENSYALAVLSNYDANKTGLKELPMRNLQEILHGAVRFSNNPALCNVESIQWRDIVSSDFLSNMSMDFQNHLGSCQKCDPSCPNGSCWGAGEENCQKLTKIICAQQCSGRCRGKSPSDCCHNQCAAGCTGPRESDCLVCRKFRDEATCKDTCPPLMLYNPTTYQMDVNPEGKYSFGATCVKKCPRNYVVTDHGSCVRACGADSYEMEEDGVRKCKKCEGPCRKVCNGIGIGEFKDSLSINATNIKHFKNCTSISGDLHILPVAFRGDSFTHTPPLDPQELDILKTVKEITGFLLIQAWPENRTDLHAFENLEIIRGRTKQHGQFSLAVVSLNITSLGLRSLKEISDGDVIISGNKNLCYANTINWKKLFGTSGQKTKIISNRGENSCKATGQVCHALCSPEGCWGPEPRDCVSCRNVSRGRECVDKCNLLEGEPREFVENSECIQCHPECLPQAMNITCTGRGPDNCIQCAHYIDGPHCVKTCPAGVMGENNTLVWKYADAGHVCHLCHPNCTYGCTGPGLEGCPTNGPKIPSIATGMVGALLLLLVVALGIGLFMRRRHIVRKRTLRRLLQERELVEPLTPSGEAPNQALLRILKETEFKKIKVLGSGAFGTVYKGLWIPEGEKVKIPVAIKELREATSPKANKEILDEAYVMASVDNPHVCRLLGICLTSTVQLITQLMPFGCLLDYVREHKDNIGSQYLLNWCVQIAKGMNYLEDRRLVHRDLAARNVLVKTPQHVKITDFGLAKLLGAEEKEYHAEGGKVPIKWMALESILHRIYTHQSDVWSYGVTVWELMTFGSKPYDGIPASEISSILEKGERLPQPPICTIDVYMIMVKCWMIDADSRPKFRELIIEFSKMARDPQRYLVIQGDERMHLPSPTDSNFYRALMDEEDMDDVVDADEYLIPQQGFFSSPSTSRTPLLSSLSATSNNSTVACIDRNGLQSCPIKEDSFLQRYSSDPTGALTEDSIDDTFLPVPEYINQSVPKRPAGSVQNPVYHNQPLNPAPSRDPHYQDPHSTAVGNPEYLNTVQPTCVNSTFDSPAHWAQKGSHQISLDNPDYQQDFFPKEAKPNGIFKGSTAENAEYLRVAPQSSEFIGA

[2] = target: Hepatocyte growth factor receptor (Homo sapiens) (UniProt P08581); assay: Induction of c-MET degradation in human MDA-MB-231 cells assessed as suppression of c-MET expression at 0.05 to 0.6 uM by Western blot analysis; assay type: cell-based
Sequence of Hepatocyte growth factor receptor (Homo sapiens) (P08581 whole entry): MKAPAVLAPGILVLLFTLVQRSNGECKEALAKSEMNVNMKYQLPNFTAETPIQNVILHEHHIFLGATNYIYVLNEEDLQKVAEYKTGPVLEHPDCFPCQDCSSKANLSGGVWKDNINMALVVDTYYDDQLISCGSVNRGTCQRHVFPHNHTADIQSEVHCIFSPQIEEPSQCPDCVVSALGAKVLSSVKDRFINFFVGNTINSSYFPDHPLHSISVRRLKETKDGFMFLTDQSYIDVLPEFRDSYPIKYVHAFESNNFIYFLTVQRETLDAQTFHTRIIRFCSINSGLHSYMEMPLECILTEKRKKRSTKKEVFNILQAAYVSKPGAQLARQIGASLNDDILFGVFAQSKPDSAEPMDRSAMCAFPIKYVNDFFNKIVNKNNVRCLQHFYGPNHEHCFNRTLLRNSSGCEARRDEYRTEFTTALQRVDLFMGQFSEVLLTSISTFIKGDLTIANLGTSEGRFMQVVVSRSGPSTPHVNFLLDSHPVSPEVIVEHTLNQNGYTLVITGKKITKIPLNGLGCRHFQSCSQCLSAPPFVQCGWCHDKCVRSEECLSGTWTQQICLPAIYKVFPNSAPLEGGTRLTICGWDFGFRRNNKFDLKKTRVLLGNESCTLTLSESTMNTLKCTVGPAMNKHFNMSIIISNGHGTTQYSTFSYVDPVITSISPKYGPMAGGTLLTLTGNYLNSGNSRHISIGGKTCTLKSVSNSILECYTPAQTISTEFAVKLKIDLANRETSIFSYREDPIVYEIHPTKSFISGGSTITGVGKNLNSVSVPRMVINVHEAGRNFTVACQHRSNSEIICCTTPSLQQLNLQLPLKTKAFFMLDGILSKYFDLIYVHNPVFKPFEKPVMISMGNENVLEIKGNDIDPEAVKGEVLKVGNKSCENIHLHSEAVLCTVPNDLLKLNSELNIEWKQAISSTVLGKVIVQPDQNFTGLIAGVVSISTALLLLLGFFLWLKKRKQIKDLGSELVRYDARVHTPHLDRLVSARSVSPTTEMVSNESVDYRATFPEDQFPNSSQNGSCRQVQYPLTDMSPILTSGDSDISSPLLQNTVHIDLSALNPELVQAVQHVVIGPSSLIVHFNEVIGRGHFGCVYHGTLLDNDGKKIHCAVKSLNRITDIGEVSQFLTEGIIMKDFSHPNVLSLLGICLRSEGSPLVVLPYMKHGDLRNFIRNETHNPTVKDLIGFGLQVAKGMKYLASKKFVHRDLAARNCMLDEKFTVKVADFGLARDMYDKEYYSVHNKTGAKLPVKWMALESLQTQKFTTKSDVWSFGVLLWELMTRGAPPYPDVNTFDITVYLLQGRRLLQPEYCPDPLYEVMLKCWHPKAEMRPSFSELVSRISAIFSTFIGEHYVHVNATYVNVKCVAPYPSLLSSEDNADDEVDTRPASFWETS

For `O=C(Nc1cccc(-c2nc(-c3ccc(NC(=O)c4cccnc4)cc3Cl)no2)c1)Nc1ccc(NC(=O)C2CC2)c(C(F)(F)F)c1`, the Activity [1] was “Active” and the Activity [2] was “Active”.
